The values below come from patent US5296596A, “Hexahydroazepine derivatives, a process for their preparation” (ELF SANOFI, priority 1990, dated 1994).

Test [1] addresses sigma receptors. Description: Binding in vitro on rat cerebral membranes, ligand 3H-DTG. The source says: (§1) These tests have been carried out in vitro on rat cerebral membranes using as ligands either ^3 H-(+)-3 PPP according to Largent et al., J. Phamacol. […] Acad. Sci. USA, 1986, 83, 8784-8788 and in vivo in mice with the ligand ^3 H-3 PPP according to B. Kenneth Koe et al., European J. Pharmacol., 1989, 161, 263-266.

For test [2], the target named is T1, sigma receptors (Rattus norvegicus, UniProt Q9R0C9).
T1 construct: in vitro on rat cerebral membranes; from tissue; host or cells: rat cerebral membranes
In words: biochemical. The settings on record: binding in vitro, ligand (+)-3-PPP, rat cerebral membranes.
Text: as §1

In test [3] the target is TCP. In words: Binding in vitro, TCP (thienylcyclohexylpiperidine). Conditions: ligand TCP.
Test [4] has as its target T2, dopaminergic receptor(s) (Rattus norvegicus, UniProt P61169).
T2 construct: from tissue; host or cells: rat brain, probably striatum (inferred from the cited methods)
In words: biochemical. The settings on record: binding in vitro, ligand spiroperidol.

Test [5] relates to sigma receptors. In words: In vivo displacement of 3H-(+)-3-PPP at the cerebral level in mice.
Text: as §1

The test system of test [6] is hyperactivity induced by d-amphetamine. Description: Antagonism of hyperactivity induced in mice by d-amphetamine. Conditions: predictive test for antipsychotic activity. The class given is in vivo.
Test [7] concerns sigma receptors. In words: Sigma receptor activity/selectivity (test not specified). The settings on record: from Table I, versus haloperidol. Format: binding.

The structures appear in SMILES notation. pIC50: −log10 of the molar value.

A word on the pIC50: it is the negative decadic logarithm of the IC50, by convention in mol/L. Read a high pIC50 as a low IC50.

T2 sequence (P61169 whole entry): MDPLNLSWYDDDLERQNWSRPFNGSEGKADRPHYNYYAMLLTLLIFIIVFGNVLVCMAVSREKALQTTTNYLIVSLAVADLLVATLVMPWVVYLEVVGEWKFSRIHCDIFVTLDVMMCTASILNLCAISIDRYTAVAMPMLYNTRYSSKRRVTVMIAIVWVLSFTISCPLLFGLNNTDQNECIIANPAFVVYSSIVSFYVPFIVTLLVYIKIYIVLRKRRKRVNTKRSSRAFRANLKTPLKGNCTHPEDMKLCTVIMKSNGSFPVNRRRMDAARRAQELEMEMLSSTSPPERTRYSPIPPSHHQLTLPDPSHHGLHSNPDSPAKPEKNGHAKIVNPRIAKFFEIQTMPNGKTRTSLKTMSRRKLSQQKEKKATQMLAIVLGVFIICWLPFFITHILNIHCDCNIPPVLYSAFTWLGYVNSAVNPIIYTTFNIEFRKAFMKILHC
T1 sequence (Q9R0C9 whole entry): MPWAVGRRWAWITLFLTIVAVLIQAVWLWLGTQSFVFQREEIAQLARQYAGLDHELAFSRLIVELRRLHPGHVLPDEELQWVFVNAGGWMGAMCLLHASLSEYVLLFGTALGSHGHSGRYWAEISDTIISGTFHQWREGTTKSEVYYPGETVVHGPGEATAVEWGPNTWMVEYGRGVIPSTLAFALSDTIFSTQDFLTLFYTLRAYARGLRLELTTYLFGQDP

Regarding `Cl.Clc1cc(/C=C\CN2CCCCCC2)ccc1C1CCCCC1` [Example 2, cis-3-(Hexahydroazepin-1-yl)-1-(3-chloro-4-cyclohexylphenyl)-1-propene hydrochloride], the negative logarithm of the IC50 (pIC50) is 8.00 in test [1], 8.10 in test [2], under 5.00 in test [3] and 5.00 in test [4]. Also, in test [5], the “displacement of the ligand (+)-3PPP, at the cerebral level” value was “active”. Moreover, in test [6], the “hyperactivity induced by d-amphetamine” value is listed as “active”. Also, the “sigma impact compared with haloperidol” value in test [7] is “superior and/or more selective sigma impact than that of haloperidol”.
